Reference: patent publication US12098144B2, “Piperazine indazole glucocorticoid receptor antagonists” (Corcept Therapeutics Incorporated, priority 2021, dated 2024)

Molecular target: T1, glucocorticoid receptor (Homo sapiens, UniProt P04150)
T1 construct: endogenous in cells; ATCC cat
T1 sequence (P04150 1-777): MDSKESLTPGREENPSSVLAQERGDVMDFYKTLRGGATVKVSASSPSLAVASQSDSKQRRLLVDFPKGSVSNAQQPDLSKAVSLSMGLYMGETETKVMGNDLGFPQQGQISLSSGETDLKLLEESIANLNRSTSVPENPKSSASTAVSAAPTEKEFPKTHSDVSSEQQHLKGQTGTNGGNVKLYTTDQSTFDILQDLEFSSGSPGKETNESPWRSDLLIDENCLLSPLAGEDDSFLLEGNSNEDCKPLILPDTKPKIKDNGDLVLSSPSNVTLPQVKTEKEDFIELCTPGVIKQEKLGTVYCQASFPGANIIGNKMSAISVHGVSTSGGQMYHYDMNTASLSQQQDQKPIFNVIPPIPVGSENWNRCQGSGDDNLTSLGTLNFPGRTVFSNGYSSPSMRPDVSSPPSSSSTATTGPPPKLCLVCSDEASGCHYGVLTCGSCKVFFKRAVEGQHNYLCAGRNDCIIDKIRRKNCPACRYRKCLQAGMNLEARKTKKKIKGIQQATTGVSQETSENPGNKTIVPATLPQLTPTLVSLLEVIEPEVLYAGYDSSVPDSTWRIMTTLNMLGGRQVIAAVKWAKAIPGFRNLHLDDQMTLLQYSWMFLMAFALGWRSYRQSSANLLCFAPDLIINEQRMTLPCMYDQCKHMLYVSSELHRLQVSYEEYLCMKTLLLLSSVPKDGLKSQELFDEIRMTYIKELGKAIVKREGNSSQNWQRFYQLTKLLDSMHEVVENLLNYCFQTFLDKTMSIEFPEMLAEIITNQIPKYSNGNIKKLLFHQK
Assay: Hep G2 TAT IC50: inhibition of dexamethasone-induced TAT in HepG2 cells (384 well)
Assay type: cell-based
Experimental: Glucocorticoid mediated activation of TAT occurs by transactivation of glucocorticoid response elements in the TAT promoter by glucocorticoid receptor/agonist complex.
HepG2 cells were cultured using MEME media supplemented with 10% (v/v) foetal bovine serum, 2 mM L-glutamine, 1% (v/v) NEAA, and 1% (v/v) penstrep, at 37° C., 5%/95% (v/v) CO2/air.
Compounds were diluted from a 10 mM stock via an Echo Acoustic liquid handler into 10 μL assay media to generate a 10-point half-log dilution curve.
HepG2 cells were then lysed with 8 μL of cell lysis buffer containing a protease inhibitor cocktail for 15 minutes at 25° C. […] After a 2-hour incubation at 37° C. the reaction was terminated by the addition of 8 μL of 5 M aqueous potassium hydroxide solution, and the plates incubated for a further 30 minutes at 37° C.
[compound] and fitting the data to a 4-parameter logistic equation.

| Structure (SMILES) | IC50 |
| --- | --- |
| Cc1cc2c(cnn2-c2ccc(F)cc2)cc1C1CN(S(=O)(=O)c2cccnn2)CCN1CCC(F)(F)F (single isomer, unassigned) [Example 176, 1-(4-fluorophenyl)-6-methyl-5-(4-pyridazin-3-ylsulfonyl-1-(3,3,3-trifluoropropyl)piperazin-2-yl)indazole] | 841 nM |
| Cc1cc2c(cnn2-c2cc(C)c(=O)n(C)c2)cc1C1CN(S(=O)(=O)c2cccnc2)CCN1CCC(F)(F)F (centres unmarked) [Example 194, 1,3-dimethyl-5-(6-methyl-5-(4-(3-pyridylsulfonyl)-1-(3,3,3-trifluoropropyl)piperazin-2-yl)indazol-1-yl)pyridin-2-one] | 443 nM |
| Cc1cc2c(cnn2-c2ccc(F)cc2)cc1C1CN(S(=O)(=O)N2CCOCC2)CCN1CC1CCCC1 (single isomer, unassigned) [Example 180, 4-(4-(cyclopentylmethyl)-3-(1-(4-fluorophenyl)-6-methyl-indazol-5-yl)piperazin-1-yl)sulfonylmorpholine] | 2090 nM |
| Cc1cc2c(cnn2-c2ccc(F)cc2)cc1C1CN(S(=O)(=O)N(C)C)CCN1CC1CCC1 (single isomer, unassigned) [Example 182, 4-(cyclobutylmethyl)-3-(1-(4-fluorophenyl)-6-methyl-indazol-5-yl)-N,N-dimethyl-piperazine-1-sulfonamide] | 3590 nM |
| Cc1cnnc(-n2ncc3cc(C4CN(S(=O)(=O)c5cnn(C)n5)CCN4CCC(F)(F)F)c(C)cc32)c1 (centres unmarked) [Example 204, 6-methyl-1-(5-methylpyridazin-3-yl)-5-(4-(2-methyltriazol-4-yl)sulfonyl-1-(3,3,3-trifluoropropyl)piperazin-2-yl)indazole] | 3850 nM |
| Cc1cc2c(cnn2-c2cc(C)c(=O)n(C)n2)cc1C1CN(S(=O)(=O)c2cnn(C)n2)CCN1CCC(F)(F)F (centres unmarked) [Example 175, 2,4-dimethyl-6-(6-methyl-5-(4-(2-methyltriazol-4-yl)sulfonyl-1-(3,3,3-trifluoropropyl)piperazin-2-yl)indazol-1-yl)pyridazin-3-one] | 1240 nM |
| COc1ncc(-n2ncc3cc(C4CN(S(=O)(=O)c5cnn(C)n5)CCN4CCC(F)(F)F)c(C)cc32)cc1C (centres unmarked) [Example 206, 1-(6-methoxy-5-methyl-3-pyridyl)-6-methyl-5-(4-(2-methyltriazol-4-yl)sulfonyl-1-(3,3,3-trifluoropropyl)piperazin-2-yl)indazole] | 6120 nM |
| Cc1cc2c(cnn2-c2ccc(F)cc2)cc1C1CN(S(=O)(=O)c2cnn(C)n2)CCCN1CCC(F)(F)F (centres unmarked) [Example 173, 1-(4-fluorophenyl)-6-methyl-5-(4-(2-methyltriazol-4-yl)sulfonyl-1-(3,3,3-trifluoropropyl)-1,4-diazepan-2-yl)indazole] | 2750 nM |
| Cc1cc2c(cnn2-c2ccc(F)cc2)cc1C1CN(S(=O)(=O)N2CCOCC2)CCN1CCC(F)(F)F (single isomer, unassigned) [Example 177, 4-(3-(1-(4-fluorophenyl)-6-methyl-indazol-5-yl)-4-(3,3,3-trifluoropropyl)piperazin-1-yl)sulfonylmorpholine] | 2460 nM |
| Cc1cc2c(cnn2-c2ccc(=O)n(C)c2)cc1C1CN(S(=O)(=O)N2CCOCC2)CCN1CCC(F)(F)F (centres unmarked) [Example 198, 1-methyl-5-(6-methyl-5-(4-morpholinosulfonyl-1-(3,3,3-trifluoropropyl)piperazin-2-yl)indazol-1-yl)pyridin-2-one] | 1280 nM |
| Cc1cc2c(cnn2-c2cccc(C(F)F)c2)cc1C1CN(S(=O)(=O)c2cnn(C)n2)CCN1CCC(F)(F)F (centres unmarked) [Example 201, 1-(3-(difluoromethyl)phenyl)-6-methyl-5-(4-(2-methyltriazol-4-yl)sulfonyl-1-(3,3,3-trifluoropropyl)piperazin-2-yl)indazole] | 3850 nM |
| COc1cc2c(cnn2-c2ccc(F)cc2)cc1C1CN(S(=O)(=O)c2csc(C)n2)CCN1CC1CCCC1 (centres unmarked) [Example 189, 4-(4-(cyclopentylmethyl)-3-(1-(4-fluorophenyl)-6-methoxy-indazol-5-yl)piperazin-1-yl)sulfonyl-2-methyl-thiazole] | 1660 nM |
| COc1cc2c(cnn2-c2ccc(F)cc2)cc1C1CN(S(=O)(=O)N(C)C)CCN1CC1CC(F)(F)C1 (centres unmarked) [Example 213, 4-((3,3-difluorocyclobutyl)methyl)-3-(1-(4-fluorophenyl)-6-methoxy-indazol-5-yl)-N,N-dimethyl-piperazine-1-sulfonamide] | 2240 nM |
| COc1ccc(-n2ncc3cc(C4CN(S(=O)(=O)c5cnn(C)n5)CCN4CCC(F)(F)F)c(C)cc32)cc1 (centres unmarked) [Example 205, 1-(4-methoxyphenyl)-6-methyl-5-(4-(2-methyltriazol-4-yl)sulfonyl-1-(3,3,3-trifluoropropyl)piperazin-2-yl)indazole] | 2880 nM |
| Cc1cc2c(cnn2-c2cc(F)c(=O)n(C)c2)cc1C1CN(S(=O)(=O)c2cnn(C)n2)CCN1CCC(F)(F)F (centres unmarked) [Example 207, 3-fluoro-1-methyl-5-(6-methyl-5-(4-(2-methyltriazol-4-yl)sulfonyl-1-(3,3,3-trifluoropropyl)piperazin-2-yl)indazol-1-yl)pyridin-2-one] | 933 nM |
| Cc1nc(S(=O)(=O)N2CCN(CC3CCCC3)C(c3cc4cnn(-c5ccc(F)cc5)c4cc3C)C2)cs1 (single isomer, unassigned) [Example 186, 4-(4-(cyclopentylmethyl)-3-(1-(4-fluorophenyl)-6-methyl-indazol-5-yl)piperazin-1-yl)sulfonyl-2-methyl-thiazole] | 2400 nM |
| Cc1nc(S(=O)(=O)N2CCN(CC3CC(C)(C)C3)C(c3cc4cnn(-c5ccc(F)cc5)c4cc3C)C2)cs1 (single isomer, unassigned) [Example 185, 4-(4-((3,3-dimethylcyclobutyl)methyl)-3-(1-(4-fluorophenyl)-6-methyl-indazol-5-yl)piperazin-1-yl)sulfonyl-2-methyl-thiazole] | 1220 nM |
